Measurements reported in ChEMBL document CHEMBL1134848, “Synthesis and biological evaluation of a spongistatin AB-spiroketal analogue” (2002).

What was measured:
Assay type in all cases: functional
DU-145 = assay: In vitro growth inhibitory activity on human Prostate (DU-145) cell line
KM-20L2 = assay: In vitro growth inhibitory activity on human Colon (KM20L2) cell line
MCF7 = assay: In vitro growth inhibitory activity on human Breast adn (MCF-7) cell line
NCI-H460 = assay: In vitro growth inhibitory activity on human Lung-NSC (NCI-H460) cell line
SF-268 = assay: In vitro growth inhibitory activity on human CNS Gliobl (SF268) cell line
BXPC-3 = assay: In vitro growth inhibitory activity on human Pancreas-a (BXPC-3) cell line

Measured: GI50

CC(=O)OC1CC(CCO)OC2(C1)CC(C)(O)CC(CO)O2 (single isomer, unassigned; (-))
> 10 µg/mL: all assays above

OCC1CCCC2(CCCC(CO)O2)O1 (single isomer, unassigned; (-))
> 10 µg/mL: all assays above
